{"source": "ChEMBL document CHEMBL5608207", "about": "“Development of narrow-spectrum topoisomerase-targeting antibacterials against mycobacteria” (Eur J Med Chem, 2024)", "key": {"[1]": {"test_system": "Mycobacterium tuberculosis", "assay": "(§1) Antimycobacterial activity against GFP-expressing Mycobacterium tuberculosis H37Rv infected in PMA-treated THP-1 cells assessed as bacterial viability at 10 uM pre-infected for 3 hrs prior to gentamycin addition for 1 hr followed by washout and compound addition measured after 4 days by fluorescence microscopic analysis (reference value: 100%)", "assay_type": "functional", "details": "time 4 day"}, "[2]": {"test_system": "Mycobacterium tuberculosis", "assay": "as §1, with “number of viable macrophages” for “bacterial viability”, “analysis” for “analysis (reference value: 100%)”", "assay_type": "functional"}, "[3]": {"test_system": "Mycobacterium tuberculosis", "assay": "Antimycobacterial activity against Mycobacterium tuberculosis H37Rv ATCC 25618 assessed as reduction in viability incubated for 6 days by resazurin reduction microplate assay", "assay_type": "functional", "details": "H37Rv ATCC 25618, 144 h, time 6 day"}, "[4]": {"test_system": "Mycobacteroides abscessus", "assay": "Antimycobacterial activity against Mycobacterium abscessus RIVM incubated for 1 day by resazurin reduction microplate assay", "assay_type": "functional", "details": "24 h"}, "[5]": {"test_system": "Mycolicibacterium smegmatis", "assay": "Antimycobacterial activity against Mycobacterium smegmatis MC2 incubated for 2 days by resazurin reduction microplate assay", "assay_type": "functional", "details": "MC2, 48 h, time 2 day"}, "Staphylococcus aureus": {"test_system": "Staphylococcus aureus", "assay": "Antibacterial activity against Staphylococcus aureus ATCC 29213 incubated for 18 hrs by serial broth microdilution method", "assay_type": "functional"}, "Pseudomonas aeruginosa [6]": {"test_system": "Pseudomonas aeruginosa", "assay": "Antibacterial activity against Pseudomonas aeruginosa ATCC 27853 incubated for 18 hrs by serial broth microdilution method", "assay_type": "functional"}, "[7]": {"target": "DNA topoisomerase 2-alpha (Homo sapiens) (UniProt P11388)", "sequence (P11388 whole entry)": "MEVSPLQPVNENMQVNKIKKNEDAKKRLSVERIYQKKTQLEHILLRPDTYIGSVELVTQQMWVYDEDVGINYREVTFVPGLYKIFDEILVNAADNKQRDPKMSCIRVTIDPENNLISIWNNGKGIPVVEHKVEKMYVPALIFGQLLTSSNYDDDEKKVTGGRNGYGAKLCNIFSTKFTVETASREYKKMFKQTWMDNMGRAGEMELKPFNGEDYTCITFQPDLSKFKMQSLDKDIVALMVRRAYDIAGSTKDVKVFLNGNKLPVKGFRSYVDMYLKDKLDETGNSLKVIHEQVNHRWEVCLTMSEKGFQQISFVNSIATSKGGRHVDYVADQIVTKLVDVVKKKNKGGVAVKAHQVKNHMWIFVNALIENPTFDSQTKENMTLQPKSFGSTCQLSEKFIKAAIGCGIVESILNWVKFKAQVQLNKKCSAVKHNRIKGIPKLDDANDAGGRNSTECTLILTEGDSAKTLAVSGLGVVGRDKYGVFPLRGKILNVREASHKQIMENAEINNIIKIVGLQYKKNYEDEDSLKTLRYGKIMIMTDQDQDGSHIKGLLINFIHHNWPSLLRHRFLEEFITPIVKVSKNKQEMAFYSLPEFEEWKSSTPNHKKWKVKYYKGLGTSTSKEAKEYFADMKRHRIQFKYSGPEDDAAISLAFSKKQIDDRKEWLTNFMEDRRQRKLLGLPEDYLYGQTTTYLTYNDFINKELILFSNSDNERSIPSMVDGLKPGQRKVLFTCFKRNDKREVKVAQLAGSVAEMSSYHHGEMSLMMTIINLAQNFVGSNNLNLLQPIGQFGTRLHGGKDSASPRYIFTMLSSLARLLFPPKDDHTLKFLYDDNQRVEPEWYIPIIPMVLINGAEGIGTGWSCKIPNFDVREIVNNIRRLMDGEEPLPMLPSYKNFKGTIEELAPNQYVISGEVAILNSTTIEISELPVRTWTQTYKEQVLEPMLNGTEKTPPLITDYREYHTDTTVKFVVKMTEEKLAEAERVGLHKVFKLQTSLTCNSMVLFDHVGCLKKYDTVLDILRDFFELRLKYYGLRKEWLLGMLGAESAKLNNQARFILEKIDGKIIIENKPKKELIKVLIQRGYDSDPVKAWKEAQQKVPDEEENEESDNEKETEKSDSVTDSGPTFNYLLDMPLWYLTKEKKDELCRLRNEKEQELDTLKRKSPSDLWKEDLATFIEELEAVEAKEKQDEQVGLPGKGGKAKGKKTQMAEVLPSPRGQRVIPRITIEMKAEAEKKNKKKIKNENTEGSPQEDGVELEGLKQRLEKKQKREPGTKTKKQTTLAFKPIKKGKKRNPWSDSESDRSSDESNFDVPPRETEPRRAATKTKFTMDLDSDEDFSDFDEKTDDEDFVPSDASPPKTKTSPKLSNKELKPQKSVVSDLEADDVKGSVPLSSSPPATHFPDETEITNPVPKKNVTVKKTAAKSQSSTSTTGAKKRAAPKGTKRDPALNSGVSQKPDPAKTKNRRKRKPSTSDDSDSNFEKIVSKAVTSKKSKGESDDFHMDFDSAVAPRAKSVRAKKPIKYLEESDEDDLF", "assay": "Inhibition of human DNA topoisomerase II alpha assessed as residual activity at 10 uM using supercoiled pNO1 plasmid as substrate incubated for 30 mins by diamond dye staining based fluorescence microplate reader assay relative to control"}, "Klebsiella pneumoniae": {"test_system": "Klebsiella pneumoniae", "assay": "Antibacterial activity against Klebsiella pneumoniae ATCC10031 incubated for 18 hrs by serial broth microdilution method", "assay_type": "functional"}, "[8]": {"target": "DNA topoisomerase 2-alpha (Homo sapiens) (UniProt P11388)", "assay": "Inhibition of human DNA topoisomerase II alpha assessed as residual activity at 100 uM using supercoiled pNO1 plasmid as substrate incubated for 30 mins by diamond dye staining based fluorescence microplate reader assay relative to control"}, "Enterobacter cloacae": {"test_system": "Enterobacter cloacae", "assay": "Antibacterial activity against Enterobacter cloacae ATCC13047 incubated for 18 hrs by serial broth microdilution method", "assay_type": "functional"}, "Acinetobacter baumannii [9]": {"test_system": "Acinetobacter baumannii", "assay": "Antibacterial activity against Acinetobacter baumannii ATCC17978 incubated for 18 hrs by serial broth microdilution method", "assay_type": "functional"}, "Escherichia coli [10]": {"test_system": "Escherichia coli", "assay": "Antibacterial activity against Escherichia coli ATCC 25922 incubated for 18 hrs by serial broth microdilution method", "assay_type": "functional"}, "Acinetobacter baumannii [11]": {"test_system": "Acinetobacter baumannii", "assay": "Antibacterial activity against Acinetobacter baumannii", "assay_type": "functional"}, "[12]": {"assay": "Inhibition of Mycobacterium tuberculosis DNA gyrase B"}, "[13]": {"test_system": "Mycobacterium tuberculosis", "assay": "Antimycobacterial activity against Mycobacterium tuberculosis H37Rv ATCC 25618 assessed as reduction in viability at 5 uM incubated for 6 days by resazurin reduction microplate assay", "assay_type": "functional", "details": "time 6 day"}, "THP-1 [14]": {"test_system": "THP-1", "assay": "Cytotoxicity against replicating human THP-1 cells", "assay_type": "toxicity, cell-based"}, "Pseudomonas aeruginosa [15]": {"test_system": "Pseudomonas aeruginosa", "assay": "Antibacterial activity against Pseudomonas aeruginosa", "assay_type": "functional"}, "THP-1 [16]": {"test_system": "THP-1", "assay": "Cytotoxicity against human THP-1 cells pretreated with PMA for 48 hrs followed by washout and compound addition for 5 days by resazurin sodium salt method", "assay_type": "toxicity, cell-based", "details": "thp-1, 120 h, time 5 day"}, "Escherichia coli [17]": {"test_system": "Escherichia coli", "assay": "Antibacterial activity against Escherichia coli ATCC 25922 harboring deltaTolC mutant incubated for 18 hrs by serial broth microdilution method", "assay_type": "functional"}}, "note": "Active and inactive are the calls of the source. The rule behind the calls is not given here."}
{"molecule": "CO[C@H]1/C=C/O[C@@]2(C)Oc3c(C)c(O)c4c(O)c(c(/C=N/N5CCN(C)CC5)c(O)c4c3C2=O)NC(=O)/C(C)=C\\C=C\\[C@H](C)[C@H](O)[C@@H](C)[C@@H](O)[C@@H](C)[C@H](OC(C)=O)[C@@H]1C", "note": "[RIFAMPIN]", "values": [{"measurement": "Activity", "setting": "[1]", "result": 1.4, "unit": "%"}, {"measurement": "Activity", "setting": "[2]; time 4 day", "result": 100, "unit": "%"}]}
{"molecule": "Cc1[nH]c(C(=O)Nc2nc3c(OC(CN4CCN(C)CC4)c4ccccc4)cc(C(=O)O)cc3s2)c(Cl)c1Cl", "note": "(centres undefined)", "values": [{"measurement": "MIC90", "setting": "[3]", "result": 20, "unit": "µM"}, {"measurement": "MIC90", "setting": "[4]", "result": 2.5, "unit": "µM"}, {"measurement": "MIC90", "setting": "[5]", "result": 2.5, "unit": "µM"}]}
{"molecule": "Cc1[nH]c(C(=O)Nc2nc3c(OC(CN4CCOCC4)c4ccccc4)cc(C(=O)O)cc3s2)cc1F", "note": "(centres undefined)", "values": [{"measurement": "MIC90", "setting": "[3]", "result": "> 40", "unit": "µM"}, {"measurement": "MIC90", "setting": "[4]", "result": 2.5, "unit": "µM"}, {"measurement": "MIC90", "setting": "[5]", "result": 10, "unit": "µM"}, {"measurement": "Activity", "setting": "Staphylococcus aureus", "result": "inactive"}]}
{"molecule": "Cc1[nH]c(C(=O)Nc2nc3c(OC(CN4CCN(C)CC4)C4CC4)cc(C(=O)O)cc3s2)c(Cl)c1Cl", "note": "(centres undefined)", "values": [{"measurement": "MIC90", "setting": "Pseudomonas aeruginosa [6]", "result": "> 116", "unit": "µM"}, {"measurement": "MIC90", "setting": "[3]", "result": 5, "unit": "µM"}, {"measurement": "Activity", "setting": "[7]", "result": 99, "unit": "%"}, {"measurement": "MIC90", "setting": "[4]", "result": 0.63, "unit": "µM"}, {"measurement": "MIC90", "setting": "Klebsiella pneumoniae", "result": 7, "unit": "µM"}, {"measurement": "Activity", "setting": "[8]", "result": 99, "unit": "%"}, {"measurement": "MIC90", "setting": "Enterobacter cloacae", "result": "> 116", "unit": "µM"}, {"measurement": "MIC90", "setting": "[5]", "result": 0.63, "unit": "µM"}, {"measurement": "MIC90", "setting": "Acinetobacter baumannii [9]", "result": "> 116", "unit": "µM"}, {"measurement": "MIC90", "setting": "Staphylococcus aureus", "result": 14, "unit": "µM"}, {"measurement": "MIC90", "setting": "Escherichia coli [10]", "result": "> 116", "unit": "µM"}]}
{"molecule": "Cc1[nH]c(C(=O)Nc2nc3c(OC(CN4CCC(N)CC4)c4ccccc4)cc(C(=O)O)cc3s2)c(Cl)c1Cl", "note": "(centres undefined)", "values": [{"measurement": "MIC90", "setting": "[3]", "result": 1.25, "unit": "µM"}, {"measurement": "MIC90", "setting": "[4]", "result": 0.63, "unit": "µM"}, {"measurement": "MIC90", "setting": "[5]", "result": 0.63, "unit": "µM"}, {"measurement": "Activity", "setting": "Escherichia coli [10]", "result": "Active"}]}
{"molecule": "Cc1[nH]c(C(=O)Nc2nc3ccc(C(=O)O)cc3s2)c(Cl)c1Cl", "values": [{"measurement": "MIC", "setting": "Acinetobacter baumannii [11]", "result": 4, "unit": "µg/mL"}, {"measurement": "Activity", "setting": "[1]", "result": 14, "unit": "%"}, {"measurement": "IC50", "setting": "[12]", "result": 24.5, "unit": "nM"}, {"measurement": "Activity", "setting": "[13]", "result": 57, "unit": "%"}, {"measurement": "Activity", "setting": "THP-1 [14]", "result": "Non-Toxic"}, {"measurement": "Activity", "setting": "[2]; time 4.0 day", "result": "inactive"}, {"measurement": "MIC", "setting": "Pseudomonas aeruginosa [15]", "result": 8, "unit": "µg/mL"}, {"measurement": "Activity", "setting": "THP-1 [16]", "result": "Non-Toxic"}]}
{"molecule": "Cc1[nH]c(C(=O)Nc2nc3c(OC(CN(C)C)c4ccccc4)cc(C(=O)O)cc3s2)c(Cl)c1Cl", "note": "(centres undefined)", "values": [{"measurement": "MIC90", "setting": "[3]", "result": 1.25, "unit": "µM"}, {"measurement": "MIC90", "setting": "[4]", "result": 0.63, "unit": "µM"}, {"measurement": "MIC90", "setting": "[5]", "result": 0.16, "unit": "µM"}]}
{"molecule": "Cc1[nH]c(C(=O)Nc2nc3c(OC4CCNC4)cc(C(=O)O)cc3s2)c(Cl)c1Cl", "note": "(centres undefined)", "values": [{"measurement": "MIC90", "setting": "Pseudomonas aeruginosa [6]", "result": "> 130", "unit": "µM"}, {"measurement": "MIC90", "setting": "Escherichia coli [17]", "result": 130, "unit": "µM"}, {"measurement": "MIC90", "setting": "[3]", "result": 2.5, "unit": "µM"}, {"measurement": "Activity", "setting": "[7]", "result": 102, "unit": "%"}, {"measurement": "MIC90", "setting": "[4]", "result": 10, "unit": "µM"}, {"measurement": "MIC90", "setting": "Klebsiella pneumoniae", "result": "> 130", "unit": "µM"}, {"measurement": "Activity", "setting": "[8]", "result": 102, "unit": "%"}, {"measurement": "MIC90", "setting": "[5]", "result": "> 20", "unit": "µM"}, {"measurement": "MIC90", "setting": "Acinetobacter baumannii [9]", "result": "> 130", "unit": "µM"}, {"measurement": "MIC90", "setting": "Staphylococcus aureus", "result": "> 130", "unit": "µM"}, {"measurement": "MIC90", "setting": "Escherichia coli [10]", "result": 130, "unit": "µM"}]}
{"molecule": "Cc1[nH]c(C(=O)Nc2nc3c(OC(CN)c4ccccc4)cc(C(=O)O)cc3s2)c(Cl)c1Cl", "note": "(centres undefined)", "values": [{"measurement": "MIC90", "setting": "[3]", "result": 1.25, "unit": "µM"}, {"measurement": "MIC90", "setting": "[4]", "result": 0.63, "unit": "µM"}, {"measurement": "MIC90", "setting": "[5]", "result": 1.25, "unit": "µM"}]}
